# Results as given in US20230255884A1, “FINISHED FIBROUS SRUCTURES AND METHODS OF THEIR USE AND PREPARATION” (CLEXIO BIOSCIENCES LTD., priority 2019, published 2023).
# Where two headings read alike, the source gives them in different places.
# Tests used:
# [1] = format: physicochemical; conditions: 25° C.
# [2] = Example 21: % Add on by finish composition, 60° C., 1 h, 91.4% polyamide/8.6% elastane; format: physicochemical
# [3] = Example 11: % Add on from aqueous lidocaine without excipients, 60° C., 1 h, 91.4% polyamide/8.6% elastane; format: physicochemical
# [4] = Example 26: leveling; % lidocaine Add on from extraction in 0.01M HCl and HPLC; format: physicochemical
# [5] = Example 22: % Add on by humectant and permeation enhancer concentration, 60° C., 1 h, squeezed; format: physicochemical; conditions: 3% lidocaine
# [6] = Example 9: % Add on of 91.4% polyamide/8.6% elastane after 1 h in aqueous 10% PEG 400, 10% propylene glycol, 2% Polysorbate 80 with lidocaine, dried overnight at RT; format: physicochemical
# [7] = Example 20: loading kinetics, aqueous 10% lidocaine, 10% PEG 400, 10% propylene glycol, 2% Polysorbate 80, 60° C., pre-cut shapes of 91.4% polyamide/8.6% elastane, squeezed; format: physicochemical
# [8] = Example 23: % Add on by surfactant concentration, 60° C., 1 h; format: physicochemical; conditions: 3% lidocaine
# [9] = 3% lidocaine, 2% Polysorbate 80
# [10] = 3% lidocaine, 10% PEG 400, 2% Polysorbate 80
# [11] = 3% lidocaine, 10% PEG 400, 10% propylene glycol
# [12] = 3% lidocaine, 10% PEG 400, 10% propylene glycol, 2% Polysorbate 80
# [13] = 3% lidocaine, 10% propylene glycol
# [14] = 3% lidocaine, 10% propylene glycol, 2% Polysorbate 80
compound,measurement,setting,value
"CCN(CC)CC(=O)Nc1c(C)cccc1C [Lidocaine, lidocaine]",% Add on,"[1]; lidocaine 0.1%, dried at RT",42.31%
same,% Add on,"[1]; lidocaine 0.1%, squeezed",7.23%
same,% Add on,"[1]; lidocaine 0.1%, washed in NaOH",2.74%
same,% Add on,"[1]; lidocaine 0.1%, washed in water",1.40%
same,% Add on,"[1]; lidocaine 25%, dried at RT",118.56%
same,Mean % Add on (dried at RT),[2]; 3% lidocaine only,37.25%
same,Mean % Add on (squeezed),[2]; 3% lidocaine only,20.27%
same,Mean % Add on (dried at RT),[2]; [9],19.10%
same,Mean % Add on (squeezed),[2]; [9],14.97%
same,Mean % Add on (dried at RT),"[2]; 3% lidocaine, 10% PEG 400",54.02%
same,Mean % Add on (squeezed),"[2]; 3% lidocaine, 10% PEG 400",32.03%
same,Mean % Add on (dried at RT),[2]; [10],42.88%
same,Mean % Add on (squeezed),[2]; [10],24.91%
same,Mean % Add on (dried at RT),[2]; [11],56.37%
same,Mean % Add on (squeezed),[2]; [11],30.01%
same,Mean % Add on (dried at RT),[2]; [12],40.92%
same,Mean % Add on (squeezed),[2]; [12],25.73%
same,Mean % Add on (dried at RT),[2]; [13],34.89%
same,Mean % Add on (squeezed),[2]; [13],21.14%
same,Mean % Add on (dried at RT),[2]; [14],19.34%
same,Mean % Add on (squeezed),[2]; [14],14.48%
same,% Add on,"[3]; lidocaine 0.1% w/w, dried at RT",1.03%
same,% Add on,"[3]; lidocaine 0.1% w/w, squeezed",1.09%
same,% Add on,"[3]; lidocaine 0.4% w/w, dried at RT",2.86%
same,% Add on,"[3]; lidocaine 0.4% w/w, squeezed",2.91%
same,% Add on,"[3]; lidocaine 1% w/w, dried at RT",8.03%
same,% Add on,"[3]; lidocaine 1% w/w, squeezed",7.57%
same,% Add on,"[3]; lidocaine 3% w/w, dried at RT",22.17%
same,% Add on,"[3]; lidocaine 3% w/w, squeezed",28.01%
same,% Add on,"[3]; lidocaine 5% w/w, dried at RT",31.61%
same,% Add on,"[3]; lidocaine 5% w/w, squeezed",39.06%
same,% Add on,"[3]; lidocaine 10% w/w, dried at RT",102.39%
same,% Add on,"[3]; lidocaine 10% w/w, squeezed",30.39%
same,% Add on,"[3]; lidocaine 15% w/w, dried at RT",62.68%
same,% Add on,"[3]; lidocaine 15% w/w, squeezed",98.46%
same,% Add on,"[3]; lidocaine 25% w/w, dried at RT",56.33%
same,% Add on,"[3]; lidocaine 25% w/w, squeezed",148.02%
same,% lidocaine Add on,[4]; exposure to 0.01M HCl 1 hr,18.86%
same,% lidocaine Add on,[4]; exposure to 0.01M HCl 2 hr,18.07%
same,% lidocaine Add on,[4]; exposure to 0.01M HCl 4 hr,18.78%
same,% lidocaine Add on,[4]; exposure to 0.01M HCl 6 hr,18.25%
same,% lidocaine Add on,[4]; exposure to 0.01M HCl 22 hr,18.04%
same,Mean % Add on,"[5]; 2% PEG 400, 2% Polysorbate 80",16.59%
same,Mean % Add on,"[5]; 2% propylene glycol, 2% Polysorbate 80",14.96%
same,Mean % Add on,"[5]; 8% PEG 400, 2% Polysorbate 80",26.06%
same,Mean % Add on,"[5]; 8% propylene glycol, 2% Polysorbate 80",15.93%
same,Mean % Add on,"[5]; 15% PEG 400, 2% Polysorbate 80",30.96%
same,Mean % Add on,"[5]; 15% propylene glycol, 2% Polysorbate 80",14.84%
same,Mean % Add on,"[5]; 20% PEG 400, 2% Polysorbate 80",37.95%
same,Mean % Add on,"[5]; 20% propylene glycol, 2% Polysorbate 80",16.03%
same,% Add on,"[6]; lidocaine 0.1% (w/w), 2-8° C.",25.93%
same,% Add on,"[6]; lidocaine 0.1% (w/w), 50° C.",32.73%
same,% Add on,"[6]; lidocaine 0.1% (w/w), 80° C.",32.20%
same,% Add on,"[6]; lidocaine 0.1% (w/w), RT",23.91%
same,% Add on,"[6]; lidocaine 0.5% (w/w), 2-8° C.",31.48%
same,% Add on,"[6]; lidocaine 0.5% (w/w), 50° C.",29.79%
same,% Add on,"[6]; lidocaine 0.5% (w/w), 80° C.",23.91%
same,% Add on,"[6]; lidocaine 0.5% (w/w), RT",26.79%
same,% Add on,"[6]; lidocaine 1% (w/w), 2-8° C.",34.00%
same,% Add on,"[6]; lidocaine 1% (w/w), 50° C.",64.44%
same,% Add on,"[6]; lidocaine 1% (w/w), 80° C.",32.14%
same,% Add on,"[6]; lidocaine 1% (w/w), RT",33.96%
same,% Add on,"[6]; lidocaine 3% (w/w), 2-8° C.",40.00%
same,% Add on,"[6]; lidocaine 3% (w/w), 50° C.",56.52%
same,% Add on,"[6]; lidocaine 3% (w/w), 80° C.",48.98%
same,% Add on,"[6]; lidocaine 3% (w/w), RT",43.75%
same,% Add on,"[6]; lidocaine 5% (w/w), 2-8° C.",60.00%
same,% Add on,"[6]; lidocaine 5% (w/w), 50° C.",46.00%
same,% Add on,"[6]; lidocaine 5% (w/w), 80° C.",64.91%
same,% Add on,"[6]; lidocaine 5% (w/w), RT",47.27%
same,% Add on,"[6]; lidocaine 8% (w/w), 2-8° C.",50.00%
same,% Add on,"[6]; lidocaine 8% (w/w), 50° C.",64.15%
same,% Add on,"[6]; lidocaine 8% (w/w), 80° C.",89.13%
same,% Add on,"[6]; lidocaine 8% (w/w), RT",58.00%
same,% Add on,"[6]; lidocaine 10% (w/w), 2-8° C.",55.77%
same,% Add on,"[6]; lidocaine 10% (w/w), 50° C.",74.55%
same,% Add on,"[6]; lidocaine 10% (w/w), 80° C.",78.72%
same,% Add on,"[6]; lidocaine 10% (w/w), RT",102.04%
same,% Add on,"[6]; lidocaine 15% (w/w), 2-8° C.",69.77%
same,% Add on,"[6]; lidocaine 15% (w/w), 50° C.",95.74%
same,% Add on,"[6]; lidocaine 15% (w/w), 80° C.",117.78%
same,% Add on,"[6]; lidocaine 15% (w/w), RT",116.98%
same,% Add on,"[6]; lidocaine 20% (w/w), 2-8° C.",78.72%
same,% Add on,"[6]; lidocaine 20% (w/w), 50° C.",107.41%
same,% Add on,"[6]; lidocaine 20% (w/w), 80° C.",116.00%
same,% Add on,"[6]; lidocaine 20% (w/w), RT",134.04%
same,% Add on,"[6]; lidocaine 25% (w/w), 2-8° C.",132.08%
same,% Add on,"[6]; lidocaine 25% (w/w), 50° C.",124.00%
same,% Add on,"[6]; lidocaine 25% (w/w), 80° C.",132.56%
same,% Add on,"[6]; lidocaine 25% (w/w), RT",269.57%
same,% Add on,"[7]; loading time 1 min, Combined",29.915%
same,% Add on,"[7]; loading time 1 min, Shape A",29.820%
same,% Add on,"[7]; loading time 1 min, Shape B",27.838%
same,% Add on,"[7]; loading time 1 min, Shape C",30.455%
same,% Add on,"[7]; loading time 1 min, Shape D",31.547%
same,% Add on,"[7]; loading time 2 min, Combined",35.227%
same,% Add on,"[7]; loading time 2 min, Shape A",34.985%
same,% Add on,"[7]; loading time 2 min, Shape B",36.019%
same,% Add on,"[7]; loading time 2 min, Shape C",34.260%
same,% Add on,"[7]; loading time 2 min, Shape D",35.643%
same,% Add on,"[7]; loading time 3 min, Combined",36.500%
same,% Add on,"[7]; loading time 3 min, Shape A",37.273%
same,% Add on,"[7]; loading time 3 min, Shape B",36.782%
same,% Add on,"[7]; loading time 3 min, Shape C",35.879%
same,% Add on,"[7]; loading time 3 min, Shape D",36.064%
same,% Add on,"[7]; loading time 6 min, Combined",41.938%
same,% Add on,"[7]; loading time 6 min, Shape A",42.242%
same,% Add on,"[7]; loading time 6 min, Shape B",44.328%
same,% Add on,"[7]; loading time 6 min, Shape C",40.764%
same,% Add on,"[7]; loading time 6 min, Shape D",40.418%
same,% Add on,"[7]; loading time 10 min, Combined",41.190%
same,% Add on,"[7]; loading time 10 min, Shape A",39.998%
same,% Add on,"[7]; loading time 10 min, Shape B",44.262%
same,% Add on,"[7]; loading time 10 min, Shape C",40.939%
same,% Add on,"[7]; loading time 10 min, Shape D",39.560%
same,% Add on,"[7]; loading time 60 min, Combined",44.374%
same,% Add on,"[7]; loading time 60 min, Shape B",41.509%
same,% Add on,"[7]; loading time 60 min, Shape C",48.701%
same,% Add on,"[7]; loading time 60 min, Shape D",41.556%
same,% Add on,"[7]; loading time 120 min, Combined",42.458%
same,% Add on,"[7]; loading time 120 min, Shape A",42.233%
same,% Add on,"[7]; loading time 120 min, Shape B",43.286%
same,% Add on,"[7]; loading time 120 min, Shape C",43.679%
same,% Add on,"[7]; loading time 120 min, Shape D",40.635%
same,% Add on,"[7]; loading time 180 min, Combined",41.691%
same,% Add on,"[7]; loading time 180 min, Shape A",42.281%
same,% Add on,"[7]; loading time 180 min, Shape B",40.802%
same,% Add on,"[7]; loading time 180 min, Shape C",42.474%
same,% Add on,"[7]; loading time 180 min, Shape D",41.206%
same,Mean % Add on (dried at RT),[8]; 2% Polysorbate 80,16.18%
same,Mean % Add on (dried at RT),[8]; 5% Polysorbate 80,22.89%
same,Mean % Add on (dried at RT),[8]; 8% Polysorbate 80,21.18%
same,Mean % Add on (dried at RT),[8]; 10% PEG 400,39.67%
same,Mean % Add on (dried at RT),[8]; 10% Polysorbate 80,24.11%
same,Mean % Add on (dried at RT),[8]; 10% propylene glycol,23.99%
same,Mean % Add on (dried at RT),[8]; 15% Polysorbate 80,33.29%
same,Mean % Add on (dried at RT),[8]; 20% Polysorbate 80,38.08%
